Results as given in patent publication US20110306608A1, “COMPOSITIONS AND METHODS FOR TREATING VASCULAR, AUTOIMMUNE AND INFLAMMATORY DISEASES” (priority 2005, published 2011).

What was measured:
[1] = Serum mycophenolic acid level by commercial assay in mice fed MMF in chow; assay type: in vivo, mouse
Description: No MPA was detected in the serum of control mice (data not shown).

[2] = system: endothelial nitric oxide synthase (eNOS) expression; details: in vitro, cholesterol clamped conditions; cited from earlier work

| SMILES | average serum mycophenolic acid (MPA) level ([1]; high-dose group (MMF 100 mg/kg/day in high-fat chow)) [mg/L] | average serum mycophenolic acid (MPA) level ([1]; low-dose group (MMF 15 mg/kg/day in high-fat chow)) [mg/L] | upregulation of eNOS expression [2] |
| --- | --- | --- | --- |
| COc1c(C)c2c(c(O)c1C/C=C(\C)CCC(=O)O)C(=O)OC2 [MPA, mycophenolic acid] | 3.65 ± 0.3 | 1.16 ± 0.09 |  |
| CC[C@H](C)C(=O)O[C@H]1C[C@@H](C)C=C2C=C[C@H](C)[C@H](CC[C@@H]3C[C@@H](O)CC(=O)O3)[C@H]21 [lovastatin] |  |  | almost fourfold |
